Structures are written as SMILES. Like-named read-outs stand apart in the source and are kept apart here. Bounds are passed on as bounds.

Series [1] deals with AFAT (acyl-Coenzyme A: fatty alcohol acyltransferase). Nature of the series: Inhibition of wax ester (WE) synthesis in mouse preputial gland microsomes. The following applies: for IC50: read-out: Inhibition of Wax Ester (WE) Synthesis IC50, mouse preputial microsome preparation, [14C]hexadecanol label, oleoyl coenzyme A.
Experimental: (§1) a) The rats or mice are anesthetized with ether, and the PGs are removed and placed in a beaker containing wash buffer (ice cold).
(§2) b) As soon as possible, the PGs are homogenized in a Potter-Elvehjem homogenizer with 15 mL of homogenizing buffer. The homogenizer is kept in a small ice bath. Work the plunger until it reaches the bottom of the tube 10 times.
(§3) k) Add 1 mL of 0.2 M KPO4 buffer pH 7.4 to half of the bottles in an ice bath. Scrape the whole pellet loose with a teflon rod and transfer to a 15 mL homogenizer. Wash bottle with 1 mL of buffer and transfer to one of the bottles that has a pellet but no buffer. Homogenize gently by hand. Aliquot into Cryovials (Nalgene™) and store in liquid nitrogen. The microsomes remain active for at least 2 years.
(§4) m) Determine the protein concentration of the homogenate by the Lowry method. […] Desired protein concentration is 20 mg/mL rat or mouse PG microsomes.
(§5) C. [4-^14C]Cholesteryl or [(1-^14C]Hexadecanol. Evaporate the toluene from the vial. Re-suspend radiolabel in 0.1 mL 2-propanol.
(§6) D. Oleoyl Coenzyme A (1 mM in sucrose buffer). Dissolve 10.3 mg oleoyl coenzyme A (Sigma 0-7002) in 10 mL sucrose buffer. Note: Store at −10° C. Dilute 5-fold to 200 μM with sucrose buffer just prior to assay.
(§7) E. [^14C]Cholesteryl—Labeled Microsomes or [^14C]Hexadecanol—Labeled Microsomes. Dilute a vial of stock microsomes to 4 mg protein per milliliter with sucrose buffer. For every 1 mL of diluted microsome solution, use glass syringe (Hamilton, [sequence], 1702) and transfer 2.5 μL of radiolabel to diluted microsomes by submerging syringe needle in the microsome solution and swirling while ejecting syringe contents. Flush syringe once with microsome solution. Determine dpm in small aliquot of solution by liquid scintillation counting (LSC). Need approximately 4×10^6 dpm/mL in the microsome solution.
(§8) G. Test Compound Solutions. Test compounds are weighed to make either 1 mM or 4 mM stock solutions in dimethylsulfoxide (DMSO). These solutions are used to prepare DMSO solutions containing 40 times the concentration of compound to be tested. These solutions may be prepared 24 hours prior to the assay and stored at room temperature.
(§9) a) Duplicate samples are prepared by adding 5 μL of test compound solution to each of two assay tubes. Controls and blanks receive 5 μL of DMSO. […]
(§10) h) Transfer 40 μL of the acidified solution to the pre-absorbent area of Whatman LK6D silica gel TLC plates, which are then dried on a hot plate for 5 minutes and developed in trimethylpentane/diethyl ether/acetic acid (75:25:2). The bands containing radiolabel are detected and quantitated by phosphorimaging with a Molecular Dynamics phosphorimager.
(§11) TLC will resolve free alcohol from its ester. The relative amount of radioactivity in each of those bands is determined by phosphorimaging. […]
In series [2] the test system is ACAT (acyl-Coenzyme A: cholesteryl acyltransferase).
Experimental: as §5
D. Oleoyl Coenzyme A (1 mM in sucrose buffer). […] Note: Store at −10° C. Dilute 5-fold to 200 μM with sucrose buffer just prior to assay.
E. [^14C]Cholesteryl—Labeled Microsomes or [^14C]Hexadecanol—Labeled Microsomes. Dilute a vial of stock microsomes to 4 mg protein per milliliter with sucrose buffer. […] Flush syringe once with microsome solution. Determine dpm in small aliquot of solution by liquid scintillation counting (LSC). Need approximately 4×10^6 dpm/mL in the microsome solution.
G. Test Compound Solutions. Test compounds are weighed to make either 1 mM or 4 mM stock solutions in dimethylsulfoxide (DMSO). These solutions are used to prepare DMSO solutions containing 40 times the concentration of compound to be tested. […]
as §10, §11
In series [3] the test system is AFAT (acyl-Coenzyme A: fatty alcohol acyltransferase).
Experimental: as §1, §2, §3, §4, §5, §6, §7, §8, §9, §10, §11

As to `CCCCCCCCCCC(C)(C)C(=O)Nc1c(OC)cc(OC)cc1OC` [Compound 2, 2,2-dimethyl-N-(2,4,6-trimethoxyphenyl)-dodecanamide], the “Inhibition of WE synthesis in mouse preputial gland microsomes (in words)” value in series [1] (inhibition curves of FIG. 1, 0.01 μM to 100 μM) was “no inhibition of WE synthesis”. Further, the IC50 in series [1] is above 100 µM.
Consider `CC(C)c1cc(C(C)C)c(CC(=O)NS(=O)(=O)Oc2c(C(C)C)cccc2C(C)C)c(C(C)C)c1` [Compound 1, [(2,4,6-triisopropyl-phenyl)-acetyl]-sulfamic acid 2,6-diisopropyl-phenyl ester], for which, in series [2] (inhibition curves of FIG. 1, printed as rat liver ACAT), the “Inhibition of liver ACAT (in words)” value is listed as “potent inhibitors of rat liver ACAT”. Also, the IC50 in series [2] (read-out: Inhibition of Cholesteryl Ester (CE) Synthesis IC50, mouse liver microsome preparation, [14C]cholesteryl label, oleoyl coenzyme A) was 0.09 µM; in series [1], 13.9 µM. In addition, the “Inhibition of WE synthesis in mouse preputial gland microsomes (in words)” value in series [3] is on record as “unexpectedly inhibits WE synthesis”.

Usually IC50 stands for the concentration needed to halve the response being measured.

The record behind these values is patent publication US6730703B2, “Dual inhibitors of cholesteryl ester and wax ester synthesis for sebaceous gland disorders” (Warner-Lambert Company, priority 2000, dated 2004).
